{"source": "patent US20140370079A1", "about": "“METHOD FOR TARGETING VASCULAR RHOJ FOR INHIBITING TUMOR ANGIOGENESIS” (Korea Advanced Institute of Science and Technology (KAIST), priority 2013, published 2014)", "key": {"HUVECs [1]": {"test_system": "HUVECs", "experiment": "In vitro vascular permeability assay (FITC-dextran across EC monolayer)", "type": "cell-based, human", "settings": "siJ-ECs treated with CA4P (20 nM) compared to siC-ECs treated with PBS", "experimental": "(§1) HUVECs were purchased from Lonza, cultured in endothelial growth medium (EGM-2, Lonza) and incubated in a humidified atmosphere with 5% CO2 at 37° C. The cells used were between passages 3 to 8. Transfections of siRNA duplexes into HUVECs were performed using Lipofectamine® RNAiMAX (Invitrogen) at a final concentration of 40 nM according to the manufacturer's protocol.\nFor in vitro vascular permeability assay, HUVECs were cultured on collagen-coated 1.0 μm-size pore insert (Millipore). After starvation for 12 hr, the cells were treated with or without VEGF (50 ng/ml) or CA4P (20 nM) for 2 hr and was then incubated with 70 kDa FITC-Dextran for 20 min. Each solution in plate wells were read with a Victor X2 multilabel plate reader."}, "[2]": {"test_system": "RhoA-ROCK signaling pathway", "experiment": "RhoA activity, ROCK activity and MLC phosphorylation in HUVECs", "type": "cell-based, human", "experimental": "RhoA activities were determined using a RhoA activation assay kit (BK036, Cytoskeleton). […] Cells were lysed and the cell lysates were incubated with the rhotekin beads (50 μg/sample) for 1 h at 4° C., washed two times, and eluted with Laemmli sample buffer. Bound RhoA, which is an active form of RhoA, was analyzed by SDS-PAGE separation followed by immunoblotting with an anti-RhoA antibody (ARH03, Cyto skeleton). The amount of total RhoA was also analyzed by immunoblotting using the same antibody in order to normalize the relative activity of RhoA.\nROCK activities were determined using a ROCK activity assay kit (CSA001, Millipore). HUVECs were lysed and cell lysates were incubated for 1 hr at room temperature in 96-well plates pre-coated with recombinant MYPT1, which contain Thr696 residue that can be phosphorylated by active ROCK. The plates were washed and incubated with anti-phospho-MYPT1 (Thr696) antibody followed by incubation with HRP-conjugated secondary antibody and HRP substrate reagent. The relative amount of active ROCK was measured by a microplate reader at 450 nm (Bio-Rad).\nAt the indicated time, tumor tissues or cultured HUVECs were homogenized in ice-cold lysis buffer containing a protease inhibitor cocktail (Roche). […] Chemiluminescent signals were developed with HRP substrate (Millipore) and detected with a LAS-1000 mini (Fuji film)."}, "LLC tumor [3]": {"test_system": "LLC tumor", "experiment": "LLC implantation tumor model, tumor growth", "type": "in vivo, mouse", "settings": "for maintenance of tumor growth response to CA4P: CA4P 50 mg/kg; for decrease of LLC tumor growth: RhoJ-WT mice", "experimental": "(§2) LLC and B16F10 melanoma cells were obtained from American Type Culture Collection. To generate implantation tumor models, suspensions of tumor cells (1×10^6 cells in 100 μl) were SC injected into the dorsal flank of 8 to 10 weeks old mice. Tumor volumes were measured at given time points. Tumor volume was calculated according to the formula, 0.5×A×B^2, where A is the largest diameter of a tumor and B is its perpendicular diameter. Tumor growth rate is defined as increased tumor volume relative to 2 days before. Indicated days later, the mice were anesthetized and tissues were harvested for further analyses. Tamoxifen (4 mg/kg, 4 times every 2 days, Sigma-Aldrich) was IP injected into Cdh5(PAC)-Cre^ERT2;Rhor^fl/fl mice starting from the day before tumor implantation or after the tumor volume had exceeded 300 mm^3. Cisplatin (10 mg/kg, every 7 days, Sigma-Aldrich) is IP injected for cytotoxic chemotherapy when tumor volume exceeded 100 mm^3. VEGF-trap (25 mg/kg, indicated schedule) is SC injected as an AIA therapy. CA4P (50 mg/kg, every 2 days, Sigma-Aldrich) was IP injected as a VDA therapy. As a control, equal amounts of Fc or PBS was injected in the same manner. To knock down RhoJ in vivo, control or RhoJ siRNA (2 mg/kg, indicated schedule), which were encapsulated into aptEDB-LS complexes, were IV injected into tumor-bearing mice."}, "LLC tumor vessels": {"test_system": "LLC tumor vessels", "experiment": "LLC tumor model, CD31+ tumor vessel density", "type": "in vivo, mouse", "settings": "for reduction of vascular density, intratumoral region / reduction of vascular density, peritumoral region: CA4P 50 mg/kg, 6 days after first treatment", "experimental": "as §2\nFor hematoxylin and eosin (H&E) staining, tumors and indicated organs were fixed overnight in 4% paraformaldehyde (PFA). After tissue processing using standard procedures, samples were embedded in paraffin and cut into 3-1 μm sections followed by H&E staining. For immunofluorescence studies, samples were fixed in 1% PFA, dehydrated in 20% sucrose solution overnight, and embedded in tissue freezing medium (Leica). Frozen blocks were cut into 50-1 μm sections. Samples were blocked with 5% goat (or donkey) serum in PBST (0.03% Trition X-100 in PBS) and then incubated for 3 hr at room temperature (RT) with the following primary antibodies: anti-GFP (rabbit polyclonal, Millipore), anti-CD31 (hamster, clone 2H8, Millipore), anti-RhoJ (mouse, clone 1E4, Novus), anti-RhoJ (mouse, clone 1D7, OriGene), FITC-conjugated anti-c′-SMA (mouse, clone 1A4, Sigma-Aldrich), anti-VE-cadherin (rat, clone 11D4.1, BD Phamingen), anti-VE-cadherin (rabbit, clone D87F2, Cell Signaling), anti-PDGFRβ (rat, eBioscience), anti-Ter119 (rat, clone TER-119, eBioscience), anti-caspase-3 (rabbit polyclonal, R&D systems), anti-LYVE-1 (rabbit polyclonal, Angiobio), anti-pan-cytokeratin (mouse, clone AE1/AE3, Abcam), anti-melanin-A (rabbit polyclonal, Abcam), anti-collagen type IV (rabbit polyclonal, Cosmo Bio), or anti-cisplatin modified DNA (rat monoclonal, Abcam). After several washes, the samples were incubated for 2 hr at RT with the following secondary antibodies: FITC-, Cy3-, or Cy5-conjugated anti-hamster IgG (Jackson ImmunoResearch), FITC- or Cy3-conjugated anti-rabbit IgG (Jackson ImmunoResearch), Cy3-conjugated anti-rat IgG (Jackson ImmunoResearch), or Cy3-conjugated anti-mouse IgG (Jackson ImmunoResearch). Goat Fab fragment anti-mouse IgG (Jackson ImmunoResearch) was used to block endogenous mouse IgG to use mouse antibody on mouse tissues. F-actin was stained with acti-stain 555 phalloidin (Cytoskeleton). Nuclei were stained with 4′,6-diamidino-2-phenylindole (DAPI, Invitrogen). Then the samples were mounted with fluorescent mounting medium (DAKO) and immunofluorescent images were acquired using a Zeiss LSM510 confocal microscope (Carl Zeiss). To detect the hypoxic areas in the tumors, Hypoxyprobe-1™ (60 mg/kg, solid pimonidazole hydrochloride, Natural Pharmacia International) was IV injected 90 min before perfusion-fixation. The tumors were then harvested, sectioned, and stained with FITC-conjugated anti-Hypoxyprobe antibody.\nDensity measurement of blood vessels, metastasis, hemorrhagic area, leakage area, and perfusion area were performed with ImageJ software (http://rsb.info.nih.gov/ij). […]"}, "LLC tumor [4]": {"test_system": "LLC tumor", "experiment": "LLC tumor model, cytokeratin+ metastasis to inguinal LNs", "type": "in vivo, mouse", "settings": "CA4P 50 mg/kg", "experimental": "as §2, with “tumor-bearing mice. […]” for “tumor-bearing mice.”"}, "HUVECs [5]": {"test_system": "HUVECs", "experiment": "In vitro Matrigel tube formation assay", "type": "cell-based, human", "settings": "siJ-ECs (RhoJ knockdown) with CA4P 20 nM, 12 hr; compared to single treatment", "experimental": "as §1\nFor matrigel tube formation assay, growth factor reduced Matrigel (BD bioscience) was thawed overnight at 4° C. The Matrigel was allowed to solidify on a 4-well culture dishes at 37° C. for 30 min. Cells were harvested and seeded at a density of 2×10^4 cells/well in growth media. Cells were then incubated at 37° C. for a further 12 hr. Tube formation was observed by taking pictures using a Leica DM IL microscope. The matrigel assays were quantified by counting the number of nodes and tubules from five different fields for each condition."}, "LLC tumor [6]": {"test_system": "LLC tumor", "experiment": "LLC tumor model, intratumoral necrosis and hemorrhage (H&E)", "type": "in vivo, mouse", "settings": "RhoJ-KO mice treated with cisplatin compared to RhoJ-WT mice treated with cisplatin; 2 weeks after treatment", "quoted_text": "To generate implantation tumor models, suspensions of tumor cells (1×10^6 cells in 100 μl) were SC injected into the dorsal flank of 8 to 10 weeks old mice. Tumor volumes were measured at given time points. Tumor volume was calculated according to the formula, 0.5×A×B^2, where A is the largest diameter of a tumor and B is its perpendicular diameter. Tumor growth rate is defined as increased tumor volume relative to 2 days before. Indicated days later, the mice were anesthetized and tissues were harvested for further analyses. […]\nDensity measurement of blood vessels, metastasis, hemorrhagic area, leakage area, and perfusion area were performed with ImageJ software (http://rsb.info.nih.gov/ij). For blood vessel density, CD31^+ area per random 0.42 mm^2 areas was measured in the peri- and intratumoral regions. To determine the amount of blood vessels that express RhoJ, GFP^+&CD31^+ area per CD31^+ area in five random 0.42 mm^2 areas were calculated. In addition, to find the percentage of CD31^+ endothelial cells within RhoJ-GFP expressing cells, the GFP^+&CD31^+ area per total GFP^+ area was also calculated. […] The area of cytokeratin^+ fluorescence was presented as % per total sectioned area of lymph node. […] The extent of hemorrhage was measured as a % of Ter-119^+ area per random 0.24 mm^2 areas. Vascular leakage was quantified as the dextran^+ area % per random 0.42 mm^2."}, "LLC tumor [7]": {"test_system": "LLC tumor", "experiment": "Intratumoral cisplatin-modified DNA area in LLC tumor", "type": "in vivo, mouse", "settings": "RhoJ-KO mice compared to RhoJ-WT mice", "experimental": "as §2, with “tumor-bearing mice. […]” for “tumor-bearing mice.”"}, "[8]": {"settings": "LLC implanted WT mice, en-siJ 2 mg/kg, VEGF-trap 25 mg/kg, 12 days after first treatment"}, "[9]": {"settings": "RhoJ-KO mice, VEGF-trap 25 mg/kg, 9 days after first treatment"}, "[10]": {"settings": "RhoJ-WT mice, VEGF-trap 25 mg/kg, 9 days after first treatment"}}}
{"molecule": "COc1ccc(/C=C\\c2cc(OC)c(OC)c(OC)c2)cc1OP(=O)(O)O", "note": "[CA4P, combretastatin-A4-phosphate]", "values": [{"measurement": "increase in permeability across the EC monolayer", "setting": "HUVECs [1]", "value": 2.9, "unit": "fold"}, {"measurement": "RhoA-ROCK signaling pathway (MLC phosphorylation)", "setting": "[2]; RhoJ knockdown in combination with CA4P 20 nM, 30 min", "value": "further activated"}, {"measurement": "additional inhibition in tumor growth", "setting": "LLC tumor [3]; LLC, RhoJ-KO mice, CA4P 50 mg/kg IP every 2 days", "value": 79, "unit": "%"}, {"measurement": "reduction in tumor growth", "setting": "LLC tumor [3]; LLC, WT mice, CA4P 50 mg/kg IP every 2 days", "value": 18, "unit": "%"}, {"measurement": "maintenance of tumor growth response to CA4P", "setting": "LLC tumor [3]; RhoJ-KO mice", "value": "durable response"}, {"measurement": "maintenance of tumor growth response to CA4P", "setting": "LLC tumor [3]; WT mice", "value": "not maintained"}, {"measurement": "reduction of vascular density, intratumoral region", "setting": "LLC tumor vessels; RhoJ-KO mice", "value": 60, "unit": "%"}, {"measurement": "reduction of vascular density, peritumoral region", "setting": "LLC tumor vessels; RhoJ-KO mice", "value": 59, "unit": "%"}, {"measurement": "reduction of vascular density, intratumoral region", "setting": "LLC tumor vessels; RhoJ-WT mice", "value": 31, "unit": "%"}, {"measurement": "reduction of vascular density, peritumoral region", "setting": "LLC tumor vessels; RhoJ-WT mice", "value": 13, "unit": "%"}, {"measurement": "reduction of metastasis (inguinal LNs)", "setting": "LLC tumor [4]; RhoJ-KO mice", "value": 67, "unit": "%"}, {"measurement": "reduction of metastasis (inguinal LNs)", "setting": "LLC tumor [4]; RhoJ-WT mice", "value": "no reduction"}, {"measurement": "EC tube formation", "setting": "HUVECs [5]", "value": "almost complete disruption"}]}
{"molecule": "N.N.[Cl][Pt][Cl]", "note": "[Cisplatin, cisplatin]", "values": [{"measurement": "increased intratumoral necrosis", "setting": "LLC tumor [6]", "value": 80, "unit": "%"}, {"measurement": "delay of LLC tumor growth", "setting": "LLC tumor [3]; RhoJ-KO mice, cisplatin 10 mg/kg IP once every week from tumor volume >100 mm^3", "value": 90, "unit": "%"}, {"measurement": "decrease of LLC tumor growth", "setting": "LLC tumor [3]; cisplatin 10 mg/kg IP once every week from tumor volume >100 mm^3", "value": 64, "unit": "%"}, {"measurement": "increase in intratumoral accumulation of cisplatin", "setting": "LLC tumor [7]", "value": "~2.0", "unit": "fold"}]}
{"molecule": "C[C@@H](N)[C@H]1CC[C@H](C(=O)Nc2ccncc2)CC1", "note": "[Y-27632]", "values": [{"measurement": "RhoA activity, ROCK activity and MLC phosphorylation increased in siJ-ECs, after ROCK inhibitor", "setting": "[2]; siJ-ECs treated with Y-27632 (up to 20 μM) for 1 hr", "value": "almost completely diminished"}]}
{"molecule": "VEGF-trap: VEGF decoy receptor; recombinant protein from stable CHO cell lines, sequesters VEGF", "values": [{"measurement": "delay of LLC tumor growth", "setting": "LLC tumor [3]; RhoJ-KO mice, VEGF-trap 25 mg/kg SC, vs Fc", "value": 88, "unit": "%"}, {"measurement": "decrease of LLC tumor growth", "setting": "LLC tumor [3]; VEGF-trap 25 mg/kg SC, vs Fc", "value": 47, "unit": "%"}, {"measurement": "decrease of tumor vessel density, intratumoral region", "setting": "LLC tumor vessels; [8]", "value": "~50", "unit": "%"}, {"measurement": "decrease of tumor vessel density, peritumoral region", "setting": "LLC tumor vessels; [8]", "value": "~45", "unit": "%"}, {"measurement": "reduction of tumor vascular density, intratumoral area", "setting": "LLC tumor vessels; [9]", "value": 68, "unit": "%"}, {"measurement": "reduction of tumor vascular density, peritumoral area", "setting": "LLC tumor vessels; [9]", "value": 66, "unit": "%"}, {"measurement": "decrease of tumor vascular density, intratumoral area", "setting": "LLC tumor vessels; [10]", "value": 49, "unit": "%"}, {"measurement": "decrease of tumor vascular density, peritumoral area", "setting": "LLC tumor vessels; [10]", "value": 43, "unit": "%"}]}
